Source: patent US8796249B2, “TGR5 modulators and methods of use thereof” (Intercept Pharmaceuticals, Inc., priority 2008, dated 2014)

Key:
C57BL6J mice = experiment: Diet-induced obesity mouse model; type: in vivo
Protocol: The goal of the study was to assess the therapeutic potency of compound 3A in a mouse model of diet-induced obesity. Compound 3A was administered via food administration for 16 weeks to male C57BL6J mice that were previously subjected for 10 weeks to a high fat diet.
For this study, male C57BL6J mice (5 weeks of age) were divided in 2 groups: one group of animals received chow diet to control the onset of obesity, one group of animals received a high fat diet. Compound 3A was tested on the animals that received the high fat diet (HFD). The animals are then analyzed during a period of 13 weeks. The groups were as follows: • 1: chow diet • 2: high fat diet • 3: high fat diet+3A • During the entire study, body weight and food intake were monitored twice weekly. • The period for the onset of obesity was 10 weeks. At the end of the 10 weeks, body composition was analyzed by dual energy X-ray absorptiometry (dexascan) and serum levels of transaminases, glucose, triglycerides, cholesterol, HDL-C, LDL-C and insulin were measured. […]
The Dexa analyses were performed by the ultra high resolution PIXIMUS Series Densitometer (0.18×0.18 mm pixels, GE Medical Systems, Madison, Wis., USA). Bone mineral density (BMD in g/cm^2) and body composition were determined by using the PIXIMUS software (version 1.4×, GE Medical Systems). […]

[1] = Biliary secretion, bile flow and metabolism in bile-fistula rat after duodenal (id) and femoral (iv) infusion; type: in vivo; conditions: for choleretic effect (bile flow): bile fistula rat
Protocol: To evaluate the mode and efficiency of the intestinal absorption the analogues were administered both intravenously (femoral infusion) and orally (duodenal infusion) at the same dose and their biliary secretion rate was evaluated in bile fistula rat model. The differences in the area under the curve of the biliary secretion vs time between iv and id administration account of its intestinal absorption and give information about its biovailability.
The bile fistula rat model was developed at the University of Bologna Lab facilities. The compound 3A was administered at a dose of 1 μmol/kg/min (1 hour infusion) to a rat group via duodenal infusion (id). Rat have a bile fistula to collect bile samples at different times before and during the infusion. For duodenal infusion experiment 3 rats (250±10 g) were treated. Bile samples were collected every 15 minutes for four hours. In addition, 3 control rats were treated with saline solution under the same conditions for times and sampling (duodenal control rats).
Duodenal infusion starts after 30 min baseline bile collection and continues for one hour.
For femoral infusion experiment, 3 rats were treated. […] Femoral infusion starts after 75 minutes of steady-state and continues for 60 min. Bile samples were collected every 15 minutes for four hours. In addition, 3 rats were treated with saline solution under the same conditions for times and sampling (femoral control rats).
Rat bile samples were brought to room temperature, briefly stirred, and diluted 1:100 v/v (bile samples from duodenal orinfusion) and 1:100 or 1:200 v/v (bile samples from femoral infusion) with 15 mM ammonium acetate buffer (pH=5.0):acetonitrile=70:30 (v/v). Final solution was transferred in autosampler vials, and 10 μL was injected into the chromatographic column.
Bile rat samples were analyzed by liquid chromatography-tandem mass spectrometry (HPLC-MS/MS) using electrospray (ESI) source in negative ionization mode. For liquid chromatography a Waters Alliance 2695 separation module coupled with autosampler was used. Autosampler was maintained at 7° C. Separation was performed on a Synergi Hydro-RP C18 column (150×2.0 mm i.d., 4 μm particle size), protected by a SecurityGuard ODS 4×2.0 mm i.d. precolumn, both supplied from Phenomenex. […]. Nitrogen was used as nebulizer gas at 90 L/h flow rate and as desolvation gas at 930 L/h. Ion source block and desolvation temperatures were set respectively to 80° C. and 180° C. Capillary voltage was 3.0 kV. MassLynx software version 4.0 was used for data acquisition and processing. In addition, using mass spectrometry both in single MS or tandem MS/MS configuration experiments were performed to identify metabolites.
A 5-point calibration curve was daily prepared and injected in duplicate. Calibration samples were obtained in the 0.1 to 25 μmol/L concentration range prepared in mobile phase. Linear calibration curve parameters were obtained from the plot of the analyte peak area versus analyte concentration using a least squares regression analysis (weight=1/x^2). Correlation coefficients were ≧0.989.
The data refer to the secretion rate of the analogues recovered in bile as such after duodenal and femoral infusion at a dose of 1 umol/Kg/min. Major and minor metabolites are reported later.
For a preliminary screening the search of the possible metabolites has been performed on the basis of the expected compounds according to previous experiments and data and to the structure and physicochemical properties of the studied analogues.

[2] = rat, duodenal infusion 1 umol/Kg/min 1 h, time 120 min
[3] = rat, duodenal infusion 1 umol/Kg/min 1 h, time 150 min
[4] = rat, duodenal infusion 1 umol/Kg/min 1 h, time 180 min
[5] = rat, duodenal infusion 1 umol/Kg/min 1 h, time 210 min
[6] = rat, duodenal infusion 1 umol/Kg/min 1 h, time 240 min
[7] = rat, duodenal infusion 1 umol/Kg/min 1 h, time 270 min
[8] = rat, duodenal infusion 1 umol/Kg/min 1 h, time 300 min
[9] = rat, femoral infusion 1 umol/Kg/min 1 h, time 90 min
[10] = rat, femoral infusion 1 umol/Kg/min 1 h, time 120 min
[11] = rat, femoral infusion 1 umol/Kg/min 1 h, time 150 min
[12] = rat, femoral infusion 1 umol/Kg/min 1 h, time 180 min
[13] = rat, femoral infusion 1 umol/Kg/min 1 h, time 210 min
[14] = rat, femoral infusion 1 umol/Kg/min 1 h, time 240 min

SMILES: CC[C@H]1[C@@H](O)[C@@H]2[C@H](C[C@H](O)[C@]3(C)[C@@H]([C@H](C)CCCS(=O)(=O)[O-])CC[C@@H]23)[C@@]2(C)CC[C@@H](O)C[C@@H]12.[Na+] [Compound 3A, 3α,7α,12α-trihydroxy-6α-ethyl-5β-cholan-24-sulfonate Sodium Salt]
- melting point: > 280 °C
- body weight gain (C57BL6J mice; HF-fed mice, compound in food, 0-9 weeks (FIG. 8)): blunted
- fat gain (body composition) (C57BL6J mice; HFD mice, 5 weeks after treatment (FIG. 9)): reduces fat gain
- choleretic effect (bile flow) ([1]; duodenal infusion (id) 1 μmol/kg/min, 1 hour): moderate choleretic effect
- choleretic effect (bile flow) ([1]; femoral infusion (iv), 60 min): moderate choleretic effect
- hepatic and intestinal metabolism ([1]; bile-fistula rat, iv and id): not metabolized by the liver or by the intestine
- intestinal absorption ([1]; rat, after id administration, recovery in bile much lower than after iv): poorly absorbed by the intestine
- recovery in bile ([1]; rat, after iv administration): almost completely recovered in bile
- Conc. in bile [1, 2]: 370 µM
- Secretion (biliary) [1, 2]: 0.026 µmol/kg/min
- Conc. in bile [1, 3]: 900 µM
- Secretion (biliary) [1, 3]: 0.079 µmol/kg/min
- Conc. in bile [1, 4]: 1300 µM
- Secretion (biliary) [1, 4]: 0.101 µmol/kg/min
- Conc. in bile [1, 5]: 950 µM
- Secretion (biliary) [1, 5]: 0.061 µmol/kg/min
- Conc. in bile [1, 6]: 700 µM
- Secretion (biliary) [1, 6]: 0.043 µmol/kg/min
- Conc. in bile [1, 7]: 580 µM
- Secretion (biliary) [1, 7]: 0.039 µmol/kg/min
- Conc. in bile [1, 8]: 510 µM
- Secretion (biliary) [1, 8]: 0.029 µmol/kg/min
- Conc. in bile [1, 9]: 2600 µM
- Secretion (biliary) [1, 9]: 0.105 µmol/kg/min
- Conc. in bile [1, 10]: 7300 µM
- Secretion (biliary) [1, 10]: 0.588 µmol/kg/min
- Conc. in bile [1, 11]: 7500 µM
- Secretion (biliary) [1, 11]: 0.463 µmol/kg/min
- Conc. in bile [1, 12]: 6200 µM
- Secretion (biliary) [1, 12]: 0.363 µmol/kg/min
- Conc. in bile [1, 13]: 3400 µM
- Secretion (biliary) [1, 13]: 0.247 µmol/kg/min
- Conc. in bile [1, 14]: 1000 µM
- Secretion (biliary) [1, 14]: 0.045 µmol/kg/min
